Reference: patent US11851426B2, “Bicyclic amines as CDK2 inhibitors” (Incyte Corporation, priority 2019, dated 2023)

target: CDK2/Cyclin E1 (Homo sapiens (Human), UniProt P24941); experiment: CDK2/Cyclin E1 HTRF enzyme activity assay; format: biochemical; conditions: 1 mM ATP; CDK2/Cyclin E1 0.25 nM; 60 minutes at room temperature
In short: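 HTRF read-out of 4E-BP1 (Thr37/46) peptide phosphorylation (ULight peptide 50 nM) by 0.25 nM baculovirus-made GST-CDK2/FLAG-Cyclin E1, with ATP at 50 μM or 1 mM, 60 min at room temperature, pH 7.5. Eu-anti-phospho antibody with EDTA quench; IC50 fitted by three- or four-parameter dose-response.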

Row | IC50 [nM] | Structure (SMILES)
1 | ≤ 20 | CCCOc1c(-c2cn[nH]c2)ncc2nc(N[C@H]3CCN(S(C)(=O)=O)C[C@H]3C)nn12 [Example 102, N-((3R,4S)-3-Methyl-1-(methylsulfonyl)piperidin-4-yl)-5-propoxy-6-(1H-pyrazol-4-yl)-[1,2,4]triazolo[1,5-a]pyrazin-2-amine]
2 | ≤ 20 | CCCOc1c(-c2cn[nH]c2)ncc2nc(NC3CCN(S(C)(=O)=O)CC3)nn12 [Example 105, N-(1-(Methylsulfonyl)piperidin-4-yl)-5-propoxy-6-(1H-pyrazol-4-yl)-[1,2,4]triazolo[1,5-a]pyrazin-2-amine]
3 | ≤ 20 | C[C@@H]1CN(S(C)(=O)=O)CC[C@@H]1Nc1nc2cnc(-c3cn[nH]c3)c(OC3CC3)n2n1 [Example 109, 5-Cyclopropoxy-N-((3R,4S)-3-methyl-1-(methylsulfonyl)piperidin-4-yl)-6-(1H-pyrazol-4-yl)-[1,2,4]triazolo[1,5-a]pyrazin-2-amine]
4 | ≤ 20 | C[C@@H]1CN(S(C)(=O)=O)CC[C@@H]1Nc1nc2cnc(-c3cn[nH]c3)c(OC3CCC(F)(F)CC3)n2n1 [Example 110, 5-((4,4-Difluorocyclohexyl)oxy)-N-((3R,4S)-3-methyl-1-(methylsulfonyl)piperidin-4-yl)-6-(1H-pyrazol-4-yl)-[1,2,4]triazolo[1,5-a]pyrazin-2-amine]
5 | ≤ 20 | CC1COCCC1Oc1c(-c2cn[nH]c2)ncc2nc(N[C@H]3CCN(S(C)(=O)=O)C[C@H]3C)nn12 (stereo partly drawn) [Example 111, N-((3R,4S)-3-Methyl-1-(methylsulfonyl)piperidin-4-yl)-5-((3-methyltetrahydro-2H-pyran-4-yl)oxy)-6-(1H-pyrazol-4-yl)-[1,2,4]triazolo[1,5-a]pyrazin-2-amine]
6 | ≤ 20 | CC1CC(Oc2c(-c3cn[nH]c3)ncc3nc(N[C@H]4CCN(S(C)(=O)=O)C[C@H]4C)nn23)CCO1 (stereo partly drawn) [Example 112, N-((3R,4S)-3-Methyl-1-(methylsulfonyl)piperidin-4-yl)-5-((2-methyltetrahydro-2H-pyran-4-yl)oxy)-6-(1H-pyrazol-4-yl)-[1,2,4]triazolo[1,5-a]pyrazin-2-amine]
7 | ≤ 20 | C[C@@H]1CN(S(C)(=O)=O)CC[C@@H]1Nc1nc2cnc(-c3cn[nH]c3)c(OC3CCOC(C(F)(F)F)C3)n2n1 (stereo partly drawn) [Example 113, N-((3R,4S)-3-Methyl-1-(methylsulfonyl)piperidin-4-yl)-6-(1H-pyrazol-4-yl)-5-((2-(trifluoromethyl)tetrahydro-2H-pyran-4-yl)oxy)-[1,2,4]triazolo[1,5-a]pyrazin-2-amine]
8 | ≤ 20 | C[C@@H]1CN(S(C)(=O)=O)CC[C@@H]1Nc1nc2cnc(-c3cn[nH]c3)c(OCC3(C(F)(F)F)CCC3)n2n1 [Example 114, N-((3R,4S)-3-Methyl-1-(methylsulfonyl)piperidin-4-yl)-6-(1H-pyrazol-4-yl)-5-((1-(trifluoromethyl)cyclobutyl)methoxy)-[1,2,4]triazolo[1,5-a]pyrazin-2-amine]
9 | ≤ 20 | C[C@@H]1CN(S(C)(=O)=O)CC[C@@H]1Nc1nc2cnc(-c3cn[nH]c3)c(OCC3CC3)n2n1 [Example 115, 5-(Cyclopropylmethoxy)-N-((3R,4S)-3-methyl-1-(methylsulfonyl)piperidin-4-yl)-6-(1H-pyrazol-4-yl)-[1,2,4]triazolo[1,5-a]pyrazin-2-amine]
10 | ≤ 20 | CC(C)CCOc1c(-c2cn[nH]c2)ncc2nc(N[C@H]3CCN(S(C)(=O)=O)C[C@H]3C)nn12 [Example 116, 5-(Isopentyloxy)-N-((3R,4S)-3-methyl-1-(methylsulfonyl)piperidin-4-yl)-6-(1H-pyrazol-4-yl)-[1,2,4]triazolo[1,5-a]pyrazin-2-amine]
11 | ≤ 20 | CS(=O)(=O)N1CCC(Nc2nc3cnc(-c4cn[nH]c4)c(OC4CCOC(C(F)(F)F)C4)n3n2)CC1 (centres unmarked) [Example 119, N-(1-(Methylsulfonyl)piperidin-4-yl)-6-(1H-pyrazol-4-yl)-5-((2-(trifluoromethyl)tetrahydro-2H-pyran-4-yl)oxy)-[1,2,4]triazolo[1,5-a]pyrazin-2-amine]
12 | ≤ 20 | CS(=O)(=O)N1CCC(Nc2nc3cnc(-c4cn[nH]c4)c(OCC4(C(F)(F)F)CCC4)n3n2)CC1 [Example 120, N-(1-(Methylsulfonyl)piperidin-4-yl)-6-(1H-pyrazol-4-yl)-5-((1-(trifluoromethyl)cyclobutyl)methoxy)-[1,2,4]triazolo[1,5-a]pyrazin-2-amine]
13 | ≤ 20 | CC(C)CCOc1c(-c2cn[nH]c2)ncc2nc(NC3CCN(S(C)(=O)=O)CC3)nn12 [Example 121, 5-(Isopentyloxy)-N-(1-(methylsulfonyl)piperidin-4-yl)-6-(1H-pyrazol-4-yl)-[1,2,4]triazolo[1,5-a]pyrazin-2-amine]
14 | ≤ 20 | CCOc1c(-c2cn[nH]c2)ncc2nc(NC3CCN(S(C)(=O)=O)CC3)nn12 [Example 122, 5-Ethoxy-N-(1-(methylsulfonyl)piperidin-4-yl)-6-(1H-pyrazol-4-yl)-[1,2,4]triazolo[1,5-a]pyrazin-2-amine]
15 | ≤ 20 | CCSc1c(-c2cn[nH]c2)ncc2nc(NC3CCN(S(C)(=O)=O)CC3)nn12 [Example 123, 5-(Ethylthio)-N-(1-(methylsulfonyl)piperidin-4-yl)-6-(1H-pyrazol-4-yl)-[1,2,4]triazolo[1,5-a]pyrazin-2-amine]
16 | ≤ 20 | CC(C)Sc1c(-c2cn[nH]c2)ncc2nc(NC3CCN(S(C)(=O)=O)CC3)nn12 [Example 124, 5-(Isopropylthio)-N-(1-(methylsulfonyl)piperidin-4-yl)-6-(1H-pyrazol-4-yl)-[1,2,4]triazolo[1,5-a]pyrazin-2-amine]
17 | ≤ 20 | C[C@@H]1CN(S(C)(=O)=O)CC[C@@H]1Nc1nc2cnc(-c3cn[nH]c3)c(N3CCCCC3)n2n1 [Example 125, N-((3R,4S)-3-Methyl-1-(methylsulfonyl)piperidin-4-yl)-5-(piperidin-1-yl)-6-(1H-pyrazol-4-yl)-[1,2,4]triazolo[1,5-a]pyrazin-2-amine]
18 | ≤ 20 | CS(=O)(=O)N1CCC(Nc2nc3cnc(-c4cn[nH]c4)c(N4CCCCC4)n3n2)CC1 [Example 126, N-(1-(Methylsulfonyl)piperidin-4-yl)-5-(piperidin-1-yl)-6-(1H-pyrazol-4-yl)-[1,2,4]triazolo[1,5-a]pyrazin-2-amine]
19 | ≤ 20 | C[C@@H]1CN(S(C)(=O)=O)CC[C@@H]1Nc1nc2cnc(-c3cn[nH]c3)c(N3CCCC(F)(F)C3)n2n1 [Example 127, 5-(3,3-Difluoropiperidin-1-yl)-N-((3R,4S)-3-methyl-1-(methylsulfonyl)piperidin-4-yl)-6-(1H-pyrazol-4-yl)-[1,2,4]triazolo[1,5-a]pyrazin-2-amine]
20 | ≤ 20 | CS(=O)(=O)N1CCC(Nc2nc3cnc(-c4cn[nH]c4)c(N4CCC[C@@H](F)C4)n3n2)CC1 [Example 128, (R)-5-(3-Fluoropiperidin-1-yl)-N-(1-(methylsulfonyl)piperidin-4-yl)-6-(1H-pyrazol-4-yl)-[1,2,4]triazolo[1,5-a]pyrazin-2-amine]
21 | ≤ 20 | CS(=O)(=O)N1CCC(Nc2nc3cnc(-c4cn[nH]c4)c(N4CCC[C@H](F)C4)n3n2)CC1 [Example 129, (S)-5-(3-Fluoropiperidin-1-yl)-N-(1-(methylsulfonyl)piperidin-4-yl)-6-(1H-pyrazol-4-yl)-[1,2,4]triazolo[1,5-a]pyrazin-2-amine]
22 | ≤ 20 | CS(=O)(=O)N1CCC(Nc2nc3cnc(-c4cn[nH]c4)c(N4CCC(F)(F)C4)n3n2)CC1 [Example 130, 5-(3,3-Difluoropyrrolidin-1-yl)-N-(1-(methylsulfonyl)piperidin-4-yl)-6-(1H-pyrazol-4-yl)-[1,2,4]triazolo[1,5-a]pyrazin-2-amine]

Row | Structure (SMILES) | IC50 [nM]
23 | CCCCOc1c(-c2cn[nH]c2)ncc2nc(N[C@H]3CCN(S(C)(=O)=O)C[C@H]3C)nn12 [Example 103, 5-Butoxy-N-((3R,4S)-3-methyl-1-(methylsulfonyl)piperidin-4-yl)-6-(1H-pyrazol-4-yl)-[1,2,4]triazolo[1,5-a]pyrazin-2-amine] | ≤ 20
24 | CC(C)COc1c(-c2cn[nH]c2)ncc2nc(NC3CCN(S(C)(=O)=O)CC3)nn12 [Example 104, 5-Isobutoxy-N-(1-(methylsulfonyl)piperidin-4-yl)-6-(1H-pyrazol-4-yl)-[1,2,4]triazolo[1,5-a]pyrazin-2-amine] | ≤ 20
25 | CCCCOc1c(-c2cn[nH]c2)ncc2nc(NC3CCN(S(C)(=O)=O)CC3)nn12 [Example 106, 5-Butoxy-N-(1-(methylsulfonyl)piperidin-4-yl)-6-(1H-pyrazol-4-yl)-[1,2,4]triazolo[1,5-a]pyrazin-2-amine] | ≤ 20
26 | CC1CC(Oc2c(-c3cn[nH]c3)ncc3nc(N[C@H]4CCN(S(C)(=O)=O)C[C@H]4C)nn23)C1 (stereo partly drawn) [Example 107, N-((3R,4S)-3-Methyl-1-(methylsulfonyl)piperidin-4-yl)-5-(3-methylcyclobutoxy)-6-(1H-pyrazol-4-yl)-[1,2,4]triazolo[1,5-a]pyrazin-2-amine] | ≤ 20
27 | C[C@@H]1CN(S(C)(=O)=O)CC[C@@H]1Nc1nc2cnc(-c3cn[nH]c3)c(OC3CC(C(F)F)C3)n2n1 (stereo partly drawn) [Example 108, 5-(3-(Difluoromethyl)cyclobutoxy)-N-((3R,4S)-3-methyl-1-(methylsulfonyl)piperidin-4-yl)-6-(1H-pyrazol-4-yl)-[1,2,4]triazolo[1,5-a]pyrazin-2-amine] | ≤ 20
28 | CS(=O)(=O)N1CCC(Nc2nc3cnc(-c4cn[nH]c4)c(OC4CCC4)n3n2)CC1 [Example 117, 5-Cyclobutoxy-N-(1-(methylsulfonyl)piperidin-4-yl)-6-(1H-pyrazol-4-yl)-[1,2,4]triazolo[1,5-a]pyrazin-2-amine] | ≤ 20
29 | CS(=O)(=O)N1CCC(Nc2nc3cnc(-c4cn[nH]c4)c(OC4CC(F)(F)C4)n3n2)CC1 [Example 118, 5-(3,3-Difluorocyclobutoxy)-N-(1-(methylsulfonyl)piperidin-4-yl)-6-(1H-pyrazol-4-yl)-[1,2,4]triazolo[1,5-a]pyrazin-2-amine] | ≤ 20
